Results published in patent US10766902B2, “Wee-1 inhibiting pyrazolopyrimidinone compounds” (ALMAC DISCOVERY LIMITED, priority 2016, dated 2020).

What follows are compounds tested against Wee-1 kinase (Homo sapiens (Human), UniProt P30291) (assay: Measurement of Wee-1 kinase activity (ADP-Glo luminescence)). Conditions: read-out: Wee1 IC50.
Format: biochemical
Description: Method 1: Measurement of Wee-1 Kinase Activity
In the measurement of Wee-1 activity, a commercial peptide Poly(Lys Tyr(4:1)) hydrobromide was purchased from Sigma Aldrich and used as the substrate. Activated Wee-1 kinase was purchased from Invitrogen (PV3817) and an ADP-Glo luminescent kit was purchased from Promega.
All reactions took place in […] volumes in reaction buffer containing 40 mM Tris-HCl and 20 mM magnesium chloride, supplemented with 0.1 mg/mL bovine serum albumin and 2 mM DTT. Compounds were serially diluted in buffer and 5 μL of each concentration pipetted into a white 384 well plate (Sigma Aldrich M6186). A 5 μL aliquot of the Wee-1 enzyme was added to each well and the plate centrifuged for 1 min to ensure mixing of the enzyme and inhibitor.
The plate was incubated at room temperature for 30 minutes before the addition of 2.0 μg/mL of substrate and 30 μM ATP in a 5 μL aliquot. The plate was centrifuged for one minute and incubated for 1 h at RT.
15 μL of ADP-Glo stop reagent was added to each well to quench the reaction and deplete unconverted ATP. The plate was incubated for a further 40 min in the dark at RT.
30 μL of ADP-Glo kinase detection reagent was added to each well, converting ADP to ATP, catalysing the generation of luciferin by luciferase. The plate was shaken for 1 min, and incubated in the dark for an additional hour.
Luminescence from each well was detected using the Biotek Synergy4 HD plate reader and the percentage inhibition of kinase activity calculated for each inhibitor tested. Positive (kinase only) and negative (no kinase) controls were added to each plate to ensure specific interaction of kinase and inhibitor. The IC50 concentration for each inhibitor was calculated by plotting the percentage kinase inhibition against concentration of inhibitor and the curve generated by non-linear regression fitting.

Chain of Wee-1 kinase (P30291 whole entry): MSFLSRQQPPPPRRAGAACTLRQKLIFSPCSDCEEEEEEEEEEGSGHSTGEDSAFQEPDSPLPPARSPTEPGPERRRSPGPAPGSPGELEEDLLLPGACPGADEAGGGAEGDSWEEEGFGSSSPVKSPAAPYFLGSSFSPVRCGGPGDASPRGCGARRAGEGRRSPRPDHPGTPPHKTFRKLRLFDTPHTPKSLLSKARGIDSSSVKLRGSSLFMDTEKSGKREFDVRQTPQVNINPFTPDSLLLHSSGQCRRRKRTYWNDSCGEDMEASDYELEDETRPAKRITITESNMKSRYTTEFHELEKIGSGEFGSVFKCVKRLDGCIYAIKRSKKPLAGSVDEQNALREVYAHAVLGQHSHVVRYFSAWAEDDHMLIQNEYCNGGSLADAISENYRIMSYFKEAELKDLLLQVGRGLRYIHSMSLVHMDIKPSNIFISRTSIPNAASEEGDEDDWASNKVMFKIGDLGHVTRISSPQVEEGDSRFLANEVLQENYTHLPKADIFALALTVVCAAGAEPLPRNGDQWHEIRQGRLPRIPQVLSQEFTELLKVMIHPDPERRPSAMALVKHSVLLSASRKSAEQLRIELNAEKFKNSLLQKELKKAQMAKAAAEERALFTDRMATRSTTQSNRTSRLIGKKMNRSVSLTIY

SMILES	IC50 [nM]
C=CCn1c(=O)c2cnc(Nc3ccc(F)c(F)c3)nc2n1-c1cccc(N=S(C)(C)=O)n1 [Example 66, 6-[(3,4-Difluorophenyl)amino]-1-(6-{[dimethyl(oxo)-λ^6-sulfanylidene]amino}pyridin-2-yl)-2-(prop-2-en-1-yl)-1H,2H,3H-pyrazolo[3,4-d]pyrimidin-3-one]	0.5
C=CCn1c(=O)c2cnc(Nc3cccnc3)nc2n1-c1cccc(N=S(C)(C)=O)n1 [Example 77, 1-(6-{[Dimethyl(oxo)-λ^6-sulfanylidene]amino}pyridin-2-yl)-2-(prop-2-en-1-yl)-6-[(pyridin-3-yl)amino]-1H,2H,3H-pyrazolo[3,4-d]pyrimidin-3-one]	1000
C=CCn1c(=O)c2cnc(Nc3cnn(C)c3)nc2n1-c1cccc(N=[S@@](C)(=O)c2ccccc2)n1 [Example 79, 1-(6-{[(S)-Methyl(oxo)phenyl-λ^6-sulfanylidene]amino}pyridin-2-yl)-6-[(1-methyl-1H-pyrazol-4-yl)amino]-2-(prop-2-en-1-yl)-1H,2H,3H-pyrazolo[3,4-d]pyrimidin-3-one]	46
C=CCn1c(=O)c2cnc(Nc3ccc(N4C[C@@H](C)O[C@@H](C)C4)cc3)nc2n1-c1cccc(N=S(C)(C)=O)n1 [Example 32, 1-(6-{[Dimethyl(oxo)-λ^6-sulfanylidene]amino}pyridin-2-yl)-6-{4-([(2S,6R)-2,6-dimethylmorpholin-4-yl]phenyl)amino}-2-(prop-2-en-1-yl)-1H,2H,3H-pyrazolo[3,4-d]pyrimidin-3-one]	0.5
C=CCn1c(=O)c2cnc(Nc3ccc(F)nc3)nc2n1-c1cccc(N=S(C)(C)=O)n1 [Example 70, 1-(6-{[Dimethyl(oxo)-λ^6-sulfanylidene]amino}pyridin-2-yl)-6-[(6-fluoropyridin-3-yl)amino]-2-(prop-2-en-1-yl)-1H,2H,3H-pyrazolo[3,4-d]pyrimidin-3-one]	2.5
CC(C)n1c(=O)c2cnc(Nc3ccc(Cl)cc3)nc2n1-c1cccc(N=S(C)(C)=O)n1 [Example 61, 6-[(4-Chlorophenyl)amino]-1-(6-{[dimethyl(oxo)-λ^6-sulfanylidene]amino}pyridin-2-yl)-2-(propan-2-yl)-1H,2H,3H-pyrazolo[3,4-d]pyrimidin-3-one]	0.6
C=CCn1c(=O)c2cnc(Nc3ccc(C(C)(C)C)cc3)nc2n1-c1cccc(N=S(C)(C)=O)n1 [Example 64, 6-[(4-tert-Butylphenyl)amino]-1-(6-{[dimethyl(oxo)-λ^6-sulfanylidene]amino}pyridin-2-yl)-2-(prop-2-en-1-yl)-1H,2H,3H-pyrazolo[3,4-d]pyrimidin-3-one]	1.6
C=CCn1c(=O)c2cnc(Nc3ccc(N4C[C@@H](C)N[C@@H](C)C4)cc3)nc2n1-c1cccc(N=S(C)(C)=O)n1 [Example 17, 1-(6-{[Dimethyl(oxo)-λ^6-sulfanylidene]amino}pyridin-2-yl)-6-({4-[(3R,5S)-3,5-dimethylpiperazin-1-yl]phenyl}amino)-2-(prop-2-en-1-yl)-1H,2H,3H-pyrazolo[3,4-d]pyrimidin-3-one]	1.1
C=CCn1c(=O)c2cnc(Nc3ccc(N4CCOCC4)cc3)nc2n1-c1cncc(N=S(C)(C)=O)n1 [Example 51, 1-(6-{[Dimethyl(oxo)-λ^6-sulfanylidene]amino}pyrazin-2-yl)-6-{[4-(morpholin-4-yl)phenyl]amino}-2-(prop-2-en-1-yl)-1H,2H,3H-pyrazolo[3,4-d]pyrimidin-3-one]	0.6
C=CCn1c(=O)c2cnc(NC34CC(C3)C4)nc2n1-c1cccc(N=S(C)(C)=O)n1 [Example 63, 6-({Bicyclo[1.1.1]pentan-1-yl}amino)-1-(6-{[dimethyl(oxo)-λ^6-sulfanylidene]amino}pyridin-2-yl)-2-(prop-2-en-1-yl)-1H,2H,3H-pyrazolo[3,4-d]pyrimidin-3-one]	1000
C=CCn1c(=O)c2cnc(Nc3ccc(N(C)CCOC)cc3)nc2n1-c1cccc(N=S(C)(C)=O)n1 [Example 89, 1-(6-{[Dimethyl(oxo)-λ^6-sulfanylidene]amino}pyridin-2-yl)-6-({4-[(2-methoxyethyl)(methyl)amino]phenyl}amino)-2-(prop-2-en-1-yl)-1H,2H,3H-pyrazolo[3,4-d]pyrimidin-3-one]	0.2
C=CCn1c(=O)c2cnc(Nc3ccc(N4CCC4)cc3)nc2n1-c1cccc(N=S(C)(C)=O)n1 [Example 90, 6-{[4-(Azetidin-1-yl)phenyl]amino}-1-(6-{[dimethyl(oxo)-λ^6-sulfanylidene]amino}pyridin-2-yl)-2-(prop-2-en-1-yl)-1H,2H,3H-pyrazolo[3,4-d]pyrimidin-3-one]	0.2
C=CCn1c(=O)c2cnc(Nc3ccc(F)cc3)nc2n1-c1cncc(N=S(C)(C)=O)n1 [Example 75, 1-(6-{[Dimethyl(oxo)-λ^6-sulfanylidene]amino}pyrazin-2-yl)-6-[(4-fluorophenyl)amino]-2-(prop-2-en-1-yl)-1H,2H,3H-pyrazolo[3,4-d]pyrimidin-3-one]	1.4
C=CCn1c(=O)c2cnc(Nc3ccc(F)c(OC)c3)nc2n1-c1cccc(N=S(C)(C)=O)n1 [Example 82, 1-(6-{[Dimethyl(oxo)-λ^6-sulfanylidene]amino}pyridin-2-yl)-6-[(4-fluoro-3-methoxyphenyl)amino]-2-(prop-2-en-1-yl)-1H,2H,3H-pyrazolo[3,4-d]pyrimidin-3-one]	0.4
C=CCn1c(=O)c2cnc(Nc3ccc(F)cc3)nc2n1-c1cccc(N=S(C)(C)=O)n1 [Example 40, 1-(6-{[Dimethyl(oxo)-λ^6-sulfanylidene]amino}pyridin-2-yl)-6-[(4-fluorophenyl)amino]-2-(prop-2-en-1-yl)-1H,2H,3H-pyrazolo[3,4-d]pyrimidin-3-one]	0.2
C=CCn1c(=O)c2cnc(Nc3ccc(C4CCN(C5CCC5)CC4)c(C)c3)nc2n1-c1cccc(N=S(C)(C)=O)n1 [Example 88, 6-{[4-(1-Cyclobutylpiperidin-4-yl)-3-methylphenyl]amino}-1-(6-{[dimethyl(oxo)-λ^6-sulfanylidene]amino}pyridin-2-yl)-2-(prop-2-en-1-yl)-1H,2H,3H-pyrazolo[3,4-d]pyrimidin-3-one]	0.4
C=CCn1c(=O)c2cnc(Nc3ccc(N4CC5CCC(C4)O5)cc3)nc2n1-c1cccc(N=S(C)(C)=O)n1 [Example 36, 1-(6-{[Dimethyl(oxo)-λ^6-sulfanylidene]amino}pyridin-2-yl)-6-{[4-(8-oxa-3-azabicyclo[3.2.1]octan-3-yl)phenyl]amino}-2-(prop-2-en-1-yl)-1H,2H,3H-pyrazolo[3,4-d]pyrimidin-3-one]	0.1
C=CCn1c(=O)c2cnc(Nc3ccc(N4C[C@@H]5C[C@H]4CO5)cc3)nc2n1-c1cccc(N=S(C)(C)=O)n1 [Example 68, 1-(6-{[Dimethyl(oxo)-λ^6-sulfanylidene]amino}pyridin-2-yl)-6-({4-[(1S,4S)-2-oxa-5-azabicyclo[2.2.1]heptan-5-yl]phenyl}amino)-2-(prop-2-en-1-yl)-1H,2H,3H-pyrazolo[3,4-d]pyrimidin-3-one]	0.3
C=CCn1cc(Nc2ncc3c(=O)n(CC=C)n(-c4cccc(N=S(C)(C)=O)n4)c3n2)cn1 [Example 95, 2-Allyl-6-((1-allyl-1H-pyrazol-4-yl)amino)-1-(6-((dimethyl(oxo)-λ^6-sulfaneylidene)amino)pyridin-2-yl)-1,2-dihydro-3H-pyrazolo[3,4-d]pyrimidin-3-one]	0.8
C=CCn1c(=O)c2cnc(Nc3ccccc3)nc2n1-c1cccc(N=S(C)(C)=O)n1 [Example 19, 1-(6-{[Dimethyl(oxo)-λ^6-sulfanylidene]amino}pyridin-2-yl)-6-(phenylamino)-2-(prop-2-en-1-yl)-1H,2H,3H-pyrazolo[3,4-d]pyrimidin-3-one]	1
C=CCn1c(=O)c2cnc(Nc3cnn(C)c3)nc2n1-c1cccc(N=S2(=O)CCCC2)n1 [Example 78, 6-[(1-Methyl-1H-pyrazol-4-yl)amino]-1-{6-[(1-oxo-1λ^6-thiolan-1-ylidene)amino]pyridin-2-yl}-2-(prop-2-en-1-yl)-1H,2H,3H-pyrazolo[3,4-d]pyrimidin-3-one]	2.5
C=CCn1c(=O)c2cnc(Nc3ccc(N4CCN(C)CC4)cc3)nc2n1-c1cccc(N=S(C)(C)=O)c1 [Example 16, 1-(3-{[Dimethyl(oxo)-λ^6-sulfanylidene]amino}phenyl)-6-{[4-(4-methylpiperazin-1-yl)phenyl]amino}-2-(prop-2-en-1-yl)-1H,2H,3H-pyrazolo[3,4-d]pyrimidin-3-one]	1
C=CCn1c(=O)c2cnc(Nc3ccc(N4CCOCC4)cc3)nc2n1-c1nccc(N=S(C)(C)=O)n1 [Example 52, 1-(4-{[Dimethyl(oxo)-λ^6-sulfanylidene]amino}pyrimidin-2-yl)-6-{[4-(morpholin-4-yl)phenyl]amino}-2-(prop-2-en-1-yl)-1H,2H,3H-pyrazolo[3,4-d]pyrimidin-3-one]	0.8
CC(C)n1c(=O)c2cnc(Nc3ccc(N4CCCNCC4)cc3)nc2n1-c1cccc(N=S(C)(C)=O)n1 [Example 46, 6-{[4-(1,4-Diazepan-1-yl)phenyl]amino}-1-(6-{[dimethyl(oxo)-λ^6-sulfanylidene]amino}pyridin-2-yl)-2-(propan-2-yl)-1H,2H,3H-pyrazolo[3,4-d]pyrimidin-3-one]	0.9
